In brackets after ≈: the same amount, converted by molar mass.
Assays:
Enterococcus = experiment: Antibacterial activity against Vancomycin-resistant Enterococcus by CLSI method; type: functional
Enterococcus faecium [1] = experiment: Antibacterial activity against Enterococcus faecium ATCC 35667 by CLSI method; type: functional
Enterococcus faecalis [2] = experiment: Antibacterial activity against vancomycin-resistant Enterococcus faecalis ATCC 51575 by CLSI method; type: functional
Staphylococcus aureus [3] = experiment: Antibacterial activity against Methicillin-resistant Staphylococcus aureus by CLSI method; type: functional
Enterococcus faecium [4] = experiment: Antibacterial activity against vancomycin-resistant Enterococcus faecium ATCC 51559 by CLSI method; type: functional
Streptococcus anginosus = experiment: Antibacterial activity against Streptococcus anginosus ATCC 33397 by CLSI method; type: functional
Enterococcus faecalis [5] = experiment: Antibacterial activity against Enterococcus faecalis ATCC 29212 by CLSI method; type: functional
Staphylococcus aureus [6] = experiment: Antibacterial activity against hospital-acquired Methicillin -resistant Staphylococcus aureus ATCC BAA-811 by CLSI method; type: functional
Staphylococcus aureus [7] = experiment: Antibacterial activity against community-acquired Methicillin -resistant Staphylococcus aureus ATCC BAA-1556 by CLSI method; type: functional
Streptococcus pneumoniae [8] = experiment: Antibacterial activity against Streptococcus pneumoniae ATCC 49619 by CLSI method; type: functional
Escherichia coli [9] = experiment: Antibacterial activity against Escherichia coli ATCC 25922 by CLSI method; type: functional
Staphylococcus aureus [10] = experiment: Antibacterial activity against Staphylococcus aureus ATCC 29213 by CLSI method; type: functional
DNA gyrase = DNA gyrase (Escherichia coli, UniProt P0AES4+P0AES6); experiment: Inhibition of Escherichia coli DNA gyrase by measuring supercoiling activity incubated for 60 mins by fluorescence based assay; type: protein-complex assay
Haemophilus influenzae = experiment: Antibacterial activity against Haemophilus influenzae ATCC 43095 by CLSI method; type: functional
[11] = Inhibition of Escherichia coli topoisomerase IV by measuring relaxation activity incubated for 30 mins by fluorescence based assay
Escherichia coli [12] = experiment: Antibacterial activity against Escherichia coli ATCC 25922 in presence of PAbetaN by CLSI method; type: functional
Clostridioides difficile = experiment: Antibacterial activity against Clostridioides difficile ATCC 700057 by CLSI method; type: functional
[13] = system: Prevotella melaninogenica; experiment: Antibacterial activity against Prevotella melaninogenica JCM6325 by CLSI method; type: functional
Porphyromonas gingivalis = experiment: Antibacterial activity against Porphyromonas gingivalis JCM8525 by CLSI method; type: functional
Bacteroides fragilis = experiment: Antibacterial activity against Bacteroides fragilis ATCC 25285 by CLSI method; type: functional
[14] = Cytotoxicity against human HepG2 cells assessed as reduction in cell viability at 10 uM incubated for 48 hrs by CCK-8 assay
[15] = Cytotoxicity against human HepG2 cells assessed as reduction in cell viability at 50 uM incubated for 48 hrs by CCK-8 assay
[16] = system: Peptostreptococcus anaerobius; experiment: Antibacterial activity against Peptostreptococcus anaerobius ATCC 27337 by CLSI method; type: functional
[17] = biological target: DNA topoisomerase 2-alpha (Homo sapiens, UniProt P11388); experiment: Inhibition of human topoisomerase 2alpha; type: ADME
Chain of DNA topoisomerase 2-alpha (P11388 whole entry): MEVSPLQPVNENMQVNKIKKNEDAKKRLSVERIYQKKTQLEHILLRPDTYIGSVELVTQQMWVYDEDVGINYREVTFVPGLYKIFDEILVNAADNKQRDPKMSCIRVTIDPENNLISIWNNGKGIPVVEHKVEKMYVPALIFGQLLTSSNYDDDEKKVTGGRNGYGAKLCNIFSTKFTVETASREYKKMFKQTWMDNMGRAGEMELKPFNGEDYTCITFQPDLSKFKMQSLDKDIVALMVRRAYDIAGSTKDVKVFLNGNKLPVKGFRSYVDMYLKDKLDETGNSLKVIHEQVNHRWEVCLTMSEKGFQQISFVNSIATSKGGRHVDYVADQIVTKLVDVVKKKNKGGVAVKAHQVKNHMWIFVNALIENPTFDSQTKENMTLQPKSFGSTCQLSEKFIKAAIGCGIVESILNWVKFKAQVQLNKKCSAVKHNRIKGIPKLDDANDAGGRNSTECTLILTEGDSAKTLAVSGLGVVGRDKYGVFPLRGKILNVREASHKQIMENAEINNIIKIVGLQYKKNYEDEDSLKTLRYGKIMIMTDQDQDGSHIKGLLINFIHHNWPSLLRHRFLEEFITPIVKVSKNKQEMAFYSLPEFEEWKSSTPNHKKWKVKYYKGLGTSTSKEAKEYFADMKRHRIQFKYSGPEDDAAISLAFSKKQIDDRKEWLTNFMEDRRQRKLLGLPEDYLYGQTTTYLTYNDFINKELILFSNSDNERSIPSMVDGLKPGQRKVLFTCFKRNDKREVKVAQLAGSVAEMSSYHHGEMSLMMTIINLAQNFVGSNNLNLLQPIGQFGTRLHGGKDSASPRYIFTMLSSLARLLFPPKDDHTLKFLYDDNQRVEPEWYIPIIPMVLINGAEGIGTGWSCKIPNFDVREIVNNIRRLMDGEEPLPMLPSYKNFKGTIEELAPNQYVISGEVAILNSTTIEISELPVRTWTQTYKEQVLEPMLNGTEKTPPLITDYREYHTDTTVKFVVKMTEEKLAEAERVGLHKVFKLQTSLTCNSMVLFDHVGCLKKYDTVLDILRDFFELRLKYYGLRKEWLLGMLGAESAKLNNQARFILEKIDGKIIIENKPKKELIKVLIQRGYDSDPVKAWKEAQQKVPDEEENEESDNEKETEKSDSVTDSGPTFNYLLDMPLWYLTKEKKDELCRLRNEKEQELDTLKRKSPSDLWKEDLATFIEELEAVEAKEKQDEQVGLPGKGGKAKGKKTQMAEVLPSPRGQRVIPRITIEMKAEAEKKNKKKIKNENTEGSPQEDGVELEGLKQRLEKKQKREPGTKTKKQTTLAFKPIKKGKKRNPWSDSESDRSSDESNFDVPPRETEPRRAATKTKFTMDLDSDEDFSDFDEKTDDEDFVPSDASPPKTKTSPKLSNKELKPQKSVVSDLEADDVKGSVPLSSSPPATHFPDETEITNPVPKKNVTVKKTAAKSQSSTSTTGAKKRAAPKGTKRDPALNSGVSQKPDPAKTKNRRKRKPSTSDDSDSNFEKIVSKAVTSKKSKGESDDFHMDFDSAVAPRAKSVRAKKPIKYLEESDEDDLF

Fusobacterium nucleatum = experiment: Antibacterial activity against Fusobacterium nucleatum JCM8532 by CLSI method; type: functional
[18] = biological target: Voltage-gated inwardly rectifying potassium channel KCNH2 (Homo sapiens, UniProt Q12809); experiment: Inhibition of human ERG expressed in CHO cells by Q-patch clamp assay
Chain of Voltage-gated inwardly rectifying potassium channel KCNH2 (Q12809 whole entry): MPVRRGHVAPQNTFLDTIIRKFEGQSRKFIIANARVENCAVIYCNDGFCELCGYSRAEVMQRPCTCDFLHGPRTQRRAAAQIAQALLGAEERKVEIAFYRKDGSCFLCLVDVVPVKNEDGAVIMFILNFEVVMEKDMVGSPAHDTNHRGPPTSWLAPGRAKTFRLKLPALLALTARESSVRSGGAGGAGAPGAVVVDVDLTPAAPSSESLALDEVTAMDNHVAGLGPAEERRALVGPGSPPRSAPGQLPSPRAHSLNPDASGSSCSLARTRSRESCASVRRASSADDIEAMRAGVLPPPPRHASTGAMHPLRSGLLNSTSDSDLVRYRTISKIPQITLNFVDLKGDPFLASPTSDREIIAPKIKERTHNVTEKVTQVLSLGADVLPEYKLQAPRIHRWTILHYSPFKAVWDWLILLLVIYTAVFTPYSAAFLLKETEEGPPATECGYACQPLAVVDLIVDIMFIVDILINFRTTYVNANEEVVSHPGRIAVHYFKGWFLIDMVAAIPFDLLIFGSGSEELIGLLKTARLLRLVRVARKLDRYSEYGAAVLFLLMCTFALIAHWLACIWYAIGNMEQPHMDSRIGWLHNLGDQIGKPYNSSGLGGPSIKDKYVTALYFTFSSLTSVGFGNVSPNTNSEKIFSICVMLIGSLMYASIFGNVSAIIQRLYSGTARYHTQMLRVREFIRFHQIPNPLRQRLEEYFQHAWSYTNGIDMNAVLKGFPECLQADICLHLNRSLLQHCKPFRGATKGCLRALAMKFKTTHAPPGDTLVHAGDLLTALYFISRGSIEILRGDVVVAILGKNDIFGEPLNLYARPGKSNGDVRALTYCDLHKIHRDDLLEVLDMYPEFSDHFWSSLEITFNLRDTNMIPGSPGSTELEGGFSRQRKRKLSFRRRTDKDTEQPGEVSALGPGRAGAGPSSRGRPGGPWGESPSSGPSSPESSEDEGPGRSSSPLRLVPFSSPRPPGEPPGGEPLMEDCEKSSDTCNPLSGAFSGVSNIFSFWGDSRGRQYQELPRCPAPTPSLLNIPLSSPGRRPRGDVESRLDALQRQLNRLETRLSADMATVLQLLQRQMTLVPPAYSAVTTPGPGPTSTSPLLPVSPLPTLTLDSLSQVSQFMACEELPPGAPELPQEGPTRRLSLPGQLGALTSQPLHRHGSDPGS

Staphylococcus aureus [19] = experiment: Antibacterial activity against Staphylococcus aureus ATCC 29213 assessed as reduction in bacterial cell growth incubated for 18 hrs by CSLI based broth microdilution method; type: functional
Escherichia coli [20] = experiment: Antibacterial activity against Escherichia coli ATCC 25922 assessed as reduction in bacterial cell growth incubated for 18 hrs by CSLI based broth microdilution method; type: functional
Streptococcus pneumoniae [21] = experiment: Antibacterial activity against genotype penicillin-resistant Streptococcus pneumoniae by CLSI method; type: functional

| Structure (SMILES) | MIC (Enterococcus faecium [1]) | MIC (Enterococcus faecalis [2]) | MIC (Enterococcus faecium [4]) | MIC (Streptococcus anginosus) | MIC (Enterococcus faecalis [5]) | MIC (Staphylococcus aureus [6]) | MIC (Staphylococcus aureus [7]) | MIC (Streptococcus pneumoniae [8]) | MIC (Escherichia coli [9]) | MIC (Staphylococcus aureus [10]) | IC50 (DNA gyrase) | MIC (Haemophilus influenzae) | IC50 [11] | MIC (Escherichia coli [12]) | MIC [13] | MIC (Porphyromonas gingivalis) | MIC (Bacteroides fragilis) | MIC [16] | IC50 [17] | also measured |
| --- | --- | --- | --- | --- | --- | --- | --- | --- | --- | --- | --- | --- | --- | --- | --- | --- | --- | --- | --- | --- |
| CN(C)c1cc(NC(=O)CNC(C)(C)C)c(O)c2c1C[C@H]1C[C@H]3[C@H](N(C)C)C(O)=C(C(N)=O)C(=O)[C@@]3(O)C(O)=C1C2=O [TIGECYCLINE] | 0.06 µg/mL (≈ 0.102 µM) | 0.25 µg/mL (≈ 0.427 µM) | 0.12 µg/mL (≈ 0.205 µM) | 0.06 µg/mL (≈ 0.102 µM) | 0.12 µg/mL (≈ 0.205 µM) | 0.25 µg/mL (≈ 0.427 µM) | 0.5 µg/mL (≈ 0.854 µM) | 0.06 µg/mL (≈ 0.102 µM) | 0.25 µg/mL (≈ 0.427 µM) | 0.25 µg/mL (≈ 0.427 µM) | – | – | – | – | – | – | – | – | – | MIC50 (Enterococcus): 0.25 µg/mL (≈ 0.427 µM); MIC90 (Enterococcus): 0.5 µg/mL (≈ 0.854 µM); MIC (Staphylococcus aureus [3]): 0.25 µg/mL (≈ 0.427 µM); MIC50 (Staphylococcus aureus [3]): 0.25 µg/mL (≈ 0.427 µM); MIC90 (Staphylococcus aureus [3]): 2 µg/mL (≈ 3.41 µM) |
| CNc1cc(F)cc2cc(C(=O)Nc3ccc(C(=O)NS(=O)(=O)N(C)C)cc3)c(=O)[nH]c12 | 0.06 µg/mL (≈ 0.13 µM) | – | – | 0.12 µg/mL (≈ 0.26 µM) | 0.03 µg/mL (≈ 0.065 µM) | – | – | 0.06 µg/mL (≈ 0.13 µM) | 16 µg/mL (≈ 34.7 µM) | – | 0.43 nM | 0.06 µg/mL (≈ 0.13 µM) | 51.9 nM | ≤ 0.015 µg/mL | – | – | – | – | – | – |
| CNc1cc(F)cc2cc(C(=O)Nc3ccc(C(=O)O)cc3CN(CCO)C3CCCCC3)c(=O)[nH]c12.Cl | 0.015 µg/mL | 0.008 µg/mL | 0.015 µg/mL | 0.008 µg/mL | 0.008 µg/mL | 1 µg/mL | 1 µg/mL | 0.015 µg/mL | 4 µg/mL | 0.5 µg/mL | 0.29 nM | 0.06 µg/mL | 23.4 nM | ≤ 0.03 µg/mL | > 32 µg/mL | 0.12 µg/mL | > 32 µg/mL | 0.12 µg/mL | > 100000 nM | MIC (Clostridioides difficile): 1 µg/mL; cytotoxicity at 48 h, 10 µM ([14]; HepG2 cells): -2.04%; cytotoxicity at 48 h, 50 µM ([15]; HepG2 cells): 7.76%; MIC (Fusobacterium nucleatum): 0.12 µg/mL; IC50 [18]: > 30000 nM |
| CO[C@@H]1[C@@H](OC(N)=O)[C@@H](O)[C@H](Oc2ccc3c(O)c(NC(=O)c4ccc(O)c(CC=C(C)C)c4)c(=O)oc3c2C)OC1(C)C [NOVOBIOCIN] | – | – | – | – | – | – | – | – | – | – | – | – | – | – | – | – | – | – | – | MIC (Staphylococcus aureus [19]): 0.13 µg/mL (≈ 0.212 µM); MIC (Escherichia coli [20]): 64 µg/mL (≈ 104 µM) |
| CCC[C@@H]1C[C@@H](C(=O)N[C@@H]([C@H]2O[C@H](SC)[C@H](O)[C@@H](O)[C@H]2O)[C@H](C)Cl)N(C)C1 [CLINDAMYCIN] | – | – | – | – | – | – | – | – | – | – | – | – | – | – | 0.03 µg/mL (≈ 0.0706 µM) | ≤ 0.015 µg/mL | 1 µg/mL (≈ 2.35 µM) | 0.25 µg/mL (≈ 0.588 µM) | – | MIC (Clostridioides difficile): 8 µg/mL (≈ 18.8 µM) |
| CNc1cc(F)cc2c(O)c(C(=O)Nc3ccc(C(=O)NS(=O)(=O)N(C)C)cc3)c(=O)[nH]c12 | 0.03 µg/mL (≈ 0.0628 µM) | 0.015 µg/mL (≈ 0.0314 µM) | 0.03 µg/mL (≈ 0.0628 µM) | 0.12 µg/mL (≈ 0.251 µM) | 0.015 µg/mL (≈ 0.0314 µM) | 1 µg/mL (≈ 2.09 µM) | 1 µg/mL (≈ 2.09 µM) | 0.06 µg/mL (≈ 0.126 µM) | 1 µg/mL (≈ 2.09 µM) | – | 2.66 nM | ≤ 0.015 µg/mL | 127 nM | ≤ 0.015 µg/mL | – | – | – | – | 20900 nM | cytotoxicity at 48 h, 10 µM ([14]; HepG2 cells): 3.61%; cytotoxicity at 48 h, 50 µM ([15]; HepG2 cells): 38%; IC50 [18]: > 30000 nM |
| CNc1cccc2cc(C(=O)Nc3ccc(C(=O)O)cc3)c(=O)[nH]c12 | – | – | – | – | – | – | – | – | – | – | – | – | 980 nM | < 0.03 µg/mL | – | – | – | – | – | MIC (Staphylococcus aureus [19]): 16 µg/mL (≈ 47.4 µM); MIC (Escherichia coli [20]): 64 µg/mL (≈ 190 µM) |
| CCCCCN(CCCCC)Cc1cc(C(=O)O)ccc1NC(=O)c1cc2cc(F)cc(NC)c2[nH]c1=O | 0.06 µg/mL (≈ 0.114 µM) | 0.015 µg/mL (≈ 0.0286 µM) | – | – | 0.015 µg/mL (≈ 0.0286 µM) | 0.5 µg/mL (≈ 0.953 µM) | 0.5 µg/mL (≈ 0.953 µM) | 0.015 µg/mL (≈ 0.0286 µM) | – | 0.06 µg/mL (≈ 0.114 µM) | 0.8 nM | 0.25 µg/mL (≈ 0.477 µM) | – | ≤ 0.03 µg/mL | – | 0.12 µg/mL (≈ 0.229 µM) | > 32 µg/mL | 0.12 µg/mL (≈ 0.229 µM) | > 100000 nM | cytotoxicity at 48 h, 10 µM ([14]; hepg2): 8.11%; cytotoxicity at 48 h, 50 µM ([15]; hepg2): 46.7%; MIC (Fusobacterium nucleatum): 1 µg/mL (≈ 1.91 µM) |
| CNc1cc(F)cc2c(O)c(C(=O)Nc3ccc(C(=O)O)cc3CN3CCCCC3)c(=O)[nH]c12.O=C(O)C(F)(F)F | 1 µg/mL | – | – | 0.5 µg/mL | 0.12 µg/mL | – | – | 0.5 µg/mL | 8 µg/mL | – | 7.53 nM | 0.12 µg/mL | 4930 nM | ≤ 0.015 µg/mL | – | – | – | – | – | – |
| CNc1cc(F)cc2cc(C(=O)Nc3ccc(C(=O)O)cc3CN3CCCCC3)c(=O)[nH]c12 | 0.03 µg/mL (≈ 0.0663 µM) | 0.015 µg/mL (≈ 0.0332 µM) | 0.015 µg/mL (≈ 0.0332 µM) | 0.03 µg/mL (≈ 0.0663 µM) | 0.015 µg/mL (≈ 0.0332 µM) | 4 µg/mL (≈ 8.84 µM) | 4 µg/mL (≈ 8.84 µM) | 0.03 µg/mL (≈ 0.0663 µM) | 8 µg/mL (≈ 17.7 µM) | 4 µg/mL (≈ 8.84 µM) | 0.31 nM | 0.06 µg/mL (≈ 0.133 µM) | 15.3 nM | ≤ 0.03 µg/mL | – | – | – | – | – | – |
| CNc1cc(F)cc2cc(C(=O)Nc3ccc(CO)cc3CN(CCO)C3CCCCC3)c(=O)[nH]c12 | – | 0.015 µg/mL (≈ 0.0302 µM) | 0.25 µg/mL (≈ 0.503 µM) | 0.06 µg/mL (≈ 0.121 µM) | 0.03 µg/mL (≈ 0.0604 µM) | 1 µg/mL (≈ 2.01 µM) | 2 µg/mL (≈ 4.03 µM) | 0.06 µg/mL (≈ 0.121 µM) | – | 1 µg/mL (≈ 2.01 µM) | 1.6 nM | – | – | ≤ 0.03 µg/mL | > 32 µg/mL | 4 µg/mL (≈ 8.06 µM) | > 32 µg/mL | – | > 100000 nM | cytotoxicity at 48 h, 10 µM ([14]; hepg2): -15.3%; cytotoxicity at 48 h, 50 µM ([15]; hepg2): 98.5% |
| CO/N=C(\C(=O)N[C@@H]1C(=O)N2C(C(=O)O)=C(CSc3nc(=O)c(O)nn3C)CS[C@H]12)c1csc(N)n1 [CEFTRIAXONE] | – | – | – | – | – | – | – | – | – | – | – | – | – | – | 1 µg/mL (≈ 1.8 µM) | ≤ 0.12 µg/mL | 64 µg/mL (≈ 115 µM) | 0.5 µg/mL (≈ 0.902 µM) | – | MIC50 (Streptococcus pneumoniae [21]): 1 µg/mL (≈ 1.8 µM); MIC90 (Streptococcus pneumoniae [21]): 4 µg/mL (≈ 7.21 µM); MIC (Fusobacterium nucleatum): 0.5 µg/mL (≈ 0.902 µM) |

Reference: ChEMBL document CHEMBL4699558, “Lead optimization of 8-(methylamino)-2-oxo-1,2-dihydroquinolines as bacterial type II topoisomerase inhibitors” (Bioorg Med Chem, 2020)
